In one test the target is T1, human orexin 1 receptor (Homo sapiens, UniProt O43613).
T1 construct: expressed in transfected cells
T1 sequence (O43613 1-425): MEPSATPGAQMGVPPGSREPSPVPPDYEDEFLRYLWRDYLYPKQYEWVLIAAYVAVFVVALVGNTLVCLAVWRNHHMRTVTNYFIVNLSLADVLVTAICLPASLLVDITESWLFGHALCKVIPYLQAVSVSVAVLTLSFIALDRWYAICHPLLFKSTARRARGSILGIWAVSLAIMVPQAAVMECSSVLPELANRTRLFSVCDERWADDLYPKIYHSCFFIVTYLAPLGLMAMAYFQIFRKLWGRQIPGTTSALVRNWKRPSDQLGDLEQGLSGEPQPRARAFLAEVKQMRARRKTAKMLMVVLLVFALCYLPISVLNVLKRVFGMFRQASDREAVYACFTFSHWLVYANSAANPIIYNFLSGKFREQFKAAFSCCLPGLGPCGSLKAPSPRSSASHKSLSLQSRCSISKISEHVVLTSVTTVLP
As to the kind of experiment: Calcium accumulation in cells (FLIPR), antagonism of orexin A, human orexin 1 receptor. In kind it is cell-based. The note with it: for inhibition at 10 µM: measured at a concentration of 10 μM of compound, read-out: FLIPR hOx1R % inhibition; for Ki: calcium accumulation, antagonism of orexin A, Cheng-Prusoff corrected, read-out: FLIPR hOx1R Ki.

A further test concerns the target T2, human orexin 2 receptor (Homo sapiens, UniProt O43614).
T2 construct: expressed in transfected cells
T2 sequence (O43614 1-444): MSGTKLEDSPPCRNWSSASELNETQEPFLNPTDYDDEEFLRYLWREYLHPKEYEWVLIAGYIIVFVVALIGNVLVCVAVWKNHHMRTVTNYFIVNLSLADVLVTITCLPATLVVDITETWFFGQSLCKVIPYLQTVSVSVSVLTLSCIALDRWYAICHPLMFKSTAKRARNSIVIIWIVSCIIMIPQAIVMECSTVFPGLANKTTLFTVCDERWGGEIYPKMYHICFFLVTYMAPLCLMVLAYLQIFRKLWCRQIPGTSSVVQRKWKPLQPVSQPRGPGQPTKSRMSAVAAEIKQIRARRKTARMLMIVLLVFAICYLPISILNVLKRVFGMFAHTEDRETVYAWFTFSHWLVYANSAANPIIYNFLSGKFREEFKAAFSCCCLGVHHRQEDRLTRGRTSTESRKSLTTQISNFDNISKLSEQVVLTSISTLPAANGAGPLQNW
Briefly: Calcium accumulation in cells (FLIPR), antagonism of orexin A, human orexin 2 receptor. In kind it is cell-based. The note with it: for Ki: calcium accumulation, antagonism of orexin A, Cheng-Prusoff corrected, read-out: FLIPR hOx2R Ki; for inhibition at 10 µM: measured at a concentration of 10 μM of compound, read-out: FLIPR hOx2R % inhibition.

In the case of `Cc1cc(C)nc(N2CCC3(CCN(Cc4ccccc4-c4nc(C)no4)C3=O)CC2)n1` [Example 3.19, 8-(4,6-Dimethyl-pyrimidin-2-yl)-2-[2-(3-methyl-[1,2,4]oxadiazol-5-yl)-benzyl]-2,8-diaza-spiro[4.5]decan-1-one], on human orexin 1 receptor, the inhibition at 10 µM was found to be 22%. The Ki on human orexin 2 receptor is 127 nM.
In the case of `COc1cc(C)nc(N2CCC3(CCN(Cc4c[nH]c5ncccc45)C3=O)CC2)n1` [Example 3.22, 2-((1H-pyrrolo[2,3-b]pyridin-3-yl)methyl)-8-(4-methoxy-6-methylpyrimidin-2-yl)-2,8-diazaspiro[4.5]decan-1-one], the inhibition at 10 µM on human orexin 1 receptor came to 24%. The Ki on human orexin 2 receptor turned out to be 246 nM.
For the molecule `Cc1cc(C)nc(N2CCC3(CCN(Cc4ccc5[nH]ccc5c4)C3=O)CC2)n1` [Example 3.23, 2-((1H-indol-5-yl)methyl)-8-(4,6-dimethylpyrimidin-2-yl)-2,8-diazaspiro[4.5]decan-1-one], at human orexin 1 receptor, the inhibition at 10 µM was 10%. The Ki on human orexin 2 receptor worked out at 2390 nM.
`Cc1cc(C)nc(N2CCC3(CCN(Cc4nn(C)nc4-c4ccccc4)C3=O)CC2)n1` [Example 3.24, 8-(4,6-dimethylpyrimidin-2-yl)-2-((2-methyl-5-phenyl-2H-1,2,3-triazol-4-yl)methyl)-2,8-diazaspiro[4.5]decan-1-one]: at human orexin 1 receptor, the inhibition at 10 µM came out at 25%. Further, the Ki on human orexin 2 receptor came out at 117 nM.
For `Cc1cc(C)nc(N2CCC3(CC2)NCN(Cc2c[nH]c4ccccc24)C3=O)n1` [Example 4.1, 3-((1H-indol-3-yl)methyl)-8-(4,6-dimethylpyrimidin-2-yl)-1,3,8-triazaspiro[4.5]decan-4-one] the same measures were 12% and 2120 nM.
In the case of `COc1ccnc(N2CCC3(CCN(Cc4c[nH]c5ccccc45)C3=O)C2)n1` (stereo not shown) [Example 5.1, 2-((1H-indol-3-yl)methyl)-7-(4-methoxypyrimidin-2-yl)-2,7-diazaspiro[4.4]nonan-1-one], the Ki turned out to be 2140 nM on human orexin 1 receptor and 132 nM at human orexin 2 receptor.
As for `COc1ccnc(N2CC[C@@]3(CCN(Cc4c[nH]c5ccccc45)C3=O)C2)n1` [Example 5.2, (R)-2-((1H-indol-3-yl)methyl)-7-(4-methoxypyrimidin-2-yl)-2,7-diazaspiro[4.4]nonan-1-one], on human orexin 1 receptor, the inhibition at 10 µM was 49%. The Ki on human orexin 2 receptor was 1260 nM.
As to `COc1ccnc(N2CC[C@]3(CCN(Cc4c[nH]c5ccccc45)C3=O)C2)n1` [Example 5.3, (S)-2-((1H-indol-3-yl)methyl)-7-(4-methoxypyrimidin-2-yl)-2,7-diazaspiro[4.4]nonan-1-one], the Ki turned out to be 2640 nM on human orexin 1 receptor and 103 nM on human orexin 2 receptor.
For `COc1cc(C)nc(N2CCC3(CCN(Cc4c[nH]c5ccccc45)C3=O)C2)n1` (stereo not shown) [Example 5.4, 2-((1H-indol-3-yl)methyl)-7-(4-methoxy-6-methylpyrimidin-2-yl)-2,7-diazaspiro[4.4]nonan-1-one], the Ki at human orexin 1 receptor turned out to be 1050 nM; on human orexin 2 receptor it was 119 nM.
As for `O=C1N(Cc2c[nH]c3ccccc23)CCC12CCN(c1cnc3ccccc3n1)C2` (stereo not shown) [Example 5.5, 2-((1H-Indol-3-yl)methyl)-7-(quinoxalin-2-yl)-2,7-diazaspiro[4.4]nonan-1-one], the Ki at human orexin 1 receptor came to 1230 nM; at human orexin 2 receptor it was 430 nM.
As to `Cc1ccnc(N2CCC3(CCN(Cc4c[nH]c5ccccc45)C3=O)C2)n1` (stereo not shown) [Example 5.6, 2-((1H-Indol-3-yl)methyl)-7-(4-methylpyrimidin-2-yl)-2,7-diazaspiro[4.4]nonan-1-one], the inhibition at 10 µM on human orexin 1 receptor is 33%. The Ki on human orexin 2 receptor was determined as 393 nM.
Regarding `Cc1cc(C)nc(N2CCC3(CCN(Cc4c[nH]c5ccccc45)C3=O)C2)n1` (stereo not shown) [Example 5.7, 2-((1H-Indol-3-yl)methyl)-7-(4,6-dimethylpyrimidin-2-yl)-2,7-diazaspiro[4.4]nonan-1-one], the Ki at human orexin 1 receptor came to 2130 nM; on human orexin 2 receptor it was 249 nM.
The like results for `O=C1N(Cc2c[nH]c3ccccc23)CCC12CCN(c1nc3ccccc3o1)C2` (stereo not shown) [Example 5.8, 2-((1H-Indol-3-yl)methyl)-7-(benzo[d]oxazol-2-yl)-2,7-diazaspiro[4.4]nonan-1-one] were, in that order, 739 nM and 304 nM.
For `Cc1cc(C)nc(N2CCC3(CCN(Cc4cccc5[nH]ccc45)C3=O)C2)n1` (stereo not shown) [Example 5.9, 2-((1H-Indol-4-yl)methyl)-7-(4,6-dimethylpyrimidin-2-yl)-2,7-diazaspiro[4.4]nonan-1-one], at human orexin 1 receptor, the inhibition at 10 µM was less than 10%. In addition, the Ki on human orexin 2 receptor stood at 1290 nM.
As for `COc1cc(C)nc(N2CCC3(CCN(Cc4cccc5[nH]ccc45)C3=O)C2)n1` (stereo not shown) [Example 5.10, 2-((1H-Indol-4-yl)methyl)-7-(4-methoxy-6-methylpyrimidin-2-yl)-2,7-diazaspiro[4.4]nonan-1-one], the Ki at human orexin 1 receptor is 1340 nM; on human orexin 2 receptor, 629 nM.
On to `COc1ccnc(N2CCC3(CCN(Cc4c[nH]c5ncccc45)C3=O)C2)n1` (stereo not shown) [Example 5.11, 2-((1H-Pyrrolo[2,3-b]pyridin-3-yl)methyl)-7-(4-methoxypyrimidin-2-yl)-2,7-diazaspiro[4.4]nonan-1-one], for which the inhibition at 10 µM on human orexin 1 receptor is less than 10%; at human orexin 2 receptor, 26%.
`COc1ccnc(N2CCC3(CCN(Cc4n[nH]c5ccccc45)C3=O)C2)n1` (stereo not shown) [Example 5.12, 2-((1H-Indazol-3-yl)methyl)-7-(4-methoxypyrimidin-2-yl)-2,7-diazaspiro[4.4]nonan-1-one]: at human orexin 1 receptor, the inhibition at 10 µM was determined as 40%. At human orexin 2 receptor, the Ki was 711 nM.
For the molecule `COc1ccnc(N2CCC3(CCN(Cc4ccccc4-c4nc(C)no4)C3=O)C2)n1` (stereo not shown) [Example 5.13, 7-(4-Methoxypyrimidin-2-yl)-2-(2-(3-methyl-1,2,4-oxadiazol-5-yl)benzyl)-2,7-diazaspiro[4.4]nonan-1-one], the Ki was 4160 nM on human orexin 1 receptor and 673 nM on human orexin 2 receptor.
In the case of `COc1cccc(-c2n[nH]nc2CN2CCC3(CCN(c4nccc(OC)n4)C3)C2=O)c1` (stereo not shown) [Example 5.14, 2-((5-(3-Methoxyphenyl)-2H-1,2,3-triazol-4-yl)methyl)-7-(4-methoxypyrimidin-2-yl)-2,7-diazaspiro[4.4]nonan-1-one], the values for the Ki on human orexin 1 receptor and on human orexin 2 receptor were 544 nM and 146 nM, respectively.
Regarding `O=C1N(Cc2c[nH]c3ccccc23)CCC12CCN(c1nc3cc(Cl)ccc3o1)C2` (stereo not shown) [Example 5.15, 2-((1H-Indol-3-yl)methyl)-7-(5-chlorobenzo[d]oxazol-2-yl)-2,7-diazaspiro[4.4]nonan-1-one], the inhibition at 10 µM on human orexin 1 receptor was found to be 29%; at human orexin 2 receptor it was 37%.
Consider `O=C1N(Cc2c[nH]c3ccccc23)CCC12CCN(c1ncc3cc(F)ccc3n1)C2` (stereo not shown) [Example 5.16, 2-((1H-Indol-3-yl)methyl)-7-(6-fluoroquinazolin-2-yl)-2,7-diazaspiro[4.4]nonan-1-one], for which the values for the inhibition constant (Ki) on human orexin 1 receptor and at human orexin 2 receptor were 1120 nM and 509 nM, respectively.
Consider `O=C1N(Cc2c[nH]c3ccccc23)CCC12CCN(c1cc(C(F)(F)F)ncn1)C2` (stereo not shown) [Example 5.17, 2-((1H-Indol-3-yl)methyl)-7-(6-(trifluoromethyl)pyrimidin-4-yl)-2,7-diazaspiro[4.4]nonan-1-one], for which, on human orexin 1 receptor, the inhibition at 10 µM is 49%. The Ki on human orexin 2 receptor was determined as 1790 nM.
Turning to `O=C1N(Cc2c[nH]c3ccccc23)CCC12CCN(c1nccc(-n3ccnc3)n1)C2` (stereo not shown) [Example 5.18, 7-(4-(1H-imidazol-1-yl)pyrimidin-2-yl)-2-((1H-indol-3-yl)methyl)-2,7-diazaspiro[4.4]nonan-1-one], the Ki stood at 1890 nM on human orexin 1 receptor and 1240 nM on human orexin 2 receptor.
For `O=C1N(Cc2c[nH]c3ccccc23)CCC12CCN(c1ccnc(-n3ccnc3)n1)C2` (stereo not shown) [Example 5.19, 7-(2-(1H-imidazol-1-yl)pyrimidin-4-yl)-2-((1H-indol-3-yl)methyl)-2,7-diazaspiro[4.4]nonan-1-one] the same measures were 1190 nM and 665 nM.
Regarding `O=C1N(Cc2c[nH]c3ccccc23)CCC12CCN(c1ccc(-n3ccnc3)nn1)C2` (stereo not shown) [Example 5.20, 7-(6-(1H-imidazol-1-yl)pyridazin-3-yl)-2-((1H-indol-3-yl)methyl)-2,7-diazaspiro[4.4]nonan-1-one], the inhibition at 10 µM on human orexin 1 receptor was 34%; at human orexin 2 receptor, 33%.
For the molecule `COc1cc(N2CCC3(CCN(Cc4c[nH]c5ccccc45)C3=O)C2)nc(C2CC2)n1` (stereo not shown) [Example 5.21, 2-((1H-indol-3-yl)methyl)-7-(2-cyclopropyl-6-methoxypyrimidin-4-yl)-2,7-diazaspiro[4.4]nonan-1-one], the values for the Ki at human orexin 1 receptor and at human orexin 2 receptor were 1300 nM and 370 nM, respectively.

Usually inhibition stands for how much of the control response was suppressed. The term Ki denotes a measure of affinity in units of concentration, obtained from inhibition or displacement.
